From the NIST ThermoML archive (doi:10.1021/je900372v)
Where “and” joins values, the source holds several entries; their conditions need not be identical. Equal values may be shown once. ± gives the expanded uncertainty stated by the source.

Details: Diaphragm manometer

**Q.** Which “vapor or sublimation pressure” value (248.34 K, Crystal) does the source give for `[CH3][Sb]([CH3])[C](C)(C)C` [tert-butyldimethylantimony] here?
**A.** 0.03829 ± 0.00077 kPa and 0.03817 ± 0.00076 kPa and 0.03826 ± 0.00077 kPa

**Q.** And the “vapor or sublimation pressure” value (253.33 K, Crystal)?
**A.** 0.05845 ± 0.0012 kPa and 0.05851 ± 0.0012 kPa and 0.05854 ± 0.0012 kPa

**Q.** And the “vapor or sublimation pressure” value (258.35 K, Crystal)?
**A.** 0.08805 ± 0.0017 kPa and 0.08784 ± 0.0017 kPa and 0.08807 ± 0.0017 kPa

**Q.** What about the “vapor or sublimation pressure” value (263.35 K, Crystal) of the same molecule?
**A.** 0.1298 ± 0.0026 kPa and 0.1299 ± 0.0026 kPa

**Q.** What about the “vapor or sublimation pressure” value (268.55 K, Crystal) of the same molecule?
**A.** 0.1898 ± 0.0037 kPa and 0.19 ± 0.0037 kPa

**Q.** What about the “vapor or sublimation pressure” value (273.4 K, Crystal) of the same molecule?
**A.** 0.2687 ± 0.0053 kPa and 0.2685 ± 0.0053 kPa

**Q.** What about the “vapor or sublimation pressure” value (278.29 K, Crystal) of the same molecule?
**A.** 0.374 ± 0.0073 kPa and 0.3741 ± 0.0073 kPa

**Q.** And the “vapor or sublimation pressure” value (283.32 K, Crystal)?
**A.** 0.5167 ± 0.01 kPa and 0.5168 ± 0.01 kPa and 0.5164 ± 0.01 kPa

**Q.** What about the “vapor or sublimation pressure” value (288.32 K, Liquid) of the same molecule?
**A.** 0.7023 ± 0.014 kPa and 0.7022 ± 0.014 kPa

**Q.** And the “vapor or sublimation pressure” value (293.29 K, Liquid)?
**A.** 0.9422 ± 0.018 kPa and 0.9421 ± 0.018 kPa and 0.942 ± 0.018 kPa

**Q.** And the “vapor or sublimation pressure” value (298.29 K, Liquid)?
**A.** 1.251 ± 0.024 kPa

**Q.** What about the “vapor or sublimation pressure” value (303.28 K, Liquid) of the same molecule?
**A.** 1.642 ± 0.032 kPa

**Q.** What about the “vapor or sublimation pressure” value (308.27 K, Liquid) of the same molecule?
**A.** 2.131 ± 0.042 kPa and 2.132 ± 0.042 kPa

**Q.** Which results are given for `[CH3][Sb]([CH3])[CH3]` [trimethylstibine]?
**A.** vapor or sublimation pressure (249.24 K, Liquid): 0.9742 ± 0.019 kPa and 0.9744 ± 0.019 kPa; vapor or sublimation pressure (250.24 K, Liquid): 1.042 ± 0.02 kPa; vapor or sublimation pressure (251.23 K, Liquid): 1.113 ± 0.022 kPa and 1.112 ± 0.022 kPa; vapor or sublimation pressure (252.21 K, Liquid): 1.186 ± 0.023 kPa; vapor or sublimation pressure (253.21 K, Liquid): 1.265 ± 0.025 kPa and 1.264 ± 0.025 kPa; vapor or sublimation pressure (258.19 K, Liquid): 1.73 ± 0.034 kPa; vapor or sublimation pressure (263.24 K, Liquid): 2.345 ± 0.046 kPa and 2.343 ± 0.046 kPa; vapor or sublimation pressure (268.3 K, Liquid): 3.134 ± 0.061 kPa and 3.136 ± 0.061 kPa; vapor or sublimation pressure (273.35 K, Liquid): 4.143 ± 0.081 kPa; vapor or sublimation pressure (278.36 K, Liquid): 5.398 ± 0.11 kPa and 5.399 ± 0.11 kPa and 5.395 ± 0.11 kPa; vapor or sublimation pressure (283.33 K, Liquid): 6.941 ± 0.14 kPa and 6.94 ± 0.14 kPa and 6.938 ± 0.14 kPa; vapor or sublimation pressure (288.27 K, Liquid): 8.822 ± 0.17 kPa and 8.821 ± 0.17 kPa; vapor or sublimation pressure (290.71 K, Liquid): 9.9 ± 0.19 kPa and 9.899 ± 0.19 kPa; vapor or sublimation pressure (293.24 K, Liquid): 11.13 ± 0.22 kPa; vapor or sublimation pressure (296.22 K, Liquid): 12.74 ± 0.25 kPa and 12.73 ± 0.25 kPa
